From US12403144B2, “HECT E3 ligase inhibitors and uses thereof” (IFOM FONDAZIONE ISTITUTO FIRC DI ONCOLOGIA MOLECOLARE, priority 2019, dated 2025)
Structures can show the parent of a compound that is named as a salt.

molecular target: T1, untagged HECT of NEDD4 wild-type (WT) (E3 ligase) (Homo sapiens, UniProt P46934); assay: In vitro ubiquitination assay TR-FRET based (self-ubiquitination of NEDD4); format: biochemical; conditions: at 11 μM; pre-incubated for 1 hour; AUC of 120 minutes kinetic; read-out: percentages of inhibition (NEDD4)
T1 construct: untagged HECT of NEDD4 wild-type (WT) (E3 ligase); made in house
T1 sequence (P46934 519-900 isoform P46934-4 limits assumed): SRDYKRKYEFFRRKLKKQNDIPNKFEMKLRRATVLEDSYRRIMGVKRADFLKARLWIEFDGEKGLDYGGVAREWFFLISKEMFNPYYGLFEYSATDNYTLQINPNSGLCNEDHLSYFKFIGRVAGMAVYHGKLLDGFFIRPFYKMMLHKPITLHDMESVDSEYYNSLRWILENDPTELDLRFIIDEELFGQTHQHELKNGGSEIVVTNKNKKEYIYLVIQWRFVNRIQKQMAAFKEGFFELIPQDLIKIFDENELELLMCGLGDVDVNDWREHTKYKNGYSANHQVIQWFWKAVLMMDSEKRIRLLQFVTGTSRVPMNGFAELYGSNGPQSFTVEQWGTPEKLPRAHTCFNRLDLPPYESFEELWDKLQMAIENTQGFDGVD
From the text: FIG. 1: TR-FRET kinetic assay performed with compound 12. […] Reactions were initiated with the addition of ATP. As labeled ubiquitin molecules become incorporated into chains they come into close proximity, resulting in energy transfer and increased signal to background detection. The activity of the enzyme is continuously and real time detected and it is expressed as % of signal/background during the time.
In order to quantitatively measure the self-ubiquitination process of the E3 HECT ligase NEDD4 the inventors employed a TR-FRET based assay. TR-FRET technology exploits the long-lasting emission of lanthanide fluorescence to interpose a short time-delay between FRET donor excitation and emission. This phenomenon enables to isolate real fluorescent signals from short-lived background emissions, thus reducing possible interference from compounds.
In the present study, elongation of the ubiqutin chain by NEDD4 is measured by adding bacterially expressed E1, His-tagged UBE2D3 (E2) and untagged HECT of NEDD4 wild-type (WT) (E3 ligase) (named in FIG. 1 as WT) enzymes to a mixture of Eu-cryptate ubiquitin, Cy5-ubiquitin and wild-type ubiquitin, combined in a ratio optimized for TR-FRET based conjugation (100×TRF-Ubiquitin Mix, SBB-TR0051). […] Bacterially expressed E1, His-tagged UBE2D3 (E2), untagged HECT NEDD4 (E3 ligase) WT and NEDD4 C/A enzymes were produced and purified as reported in E. Maspero et al. Methods Mol Biol. 1449:153-60 (2016).
Enzymatic incorporation of the labeled TRF-Ubiquitin mix into chains leads to an increase in fluorescence emission at 665 nm (emission of the acceptor Cy5-Ubiquitin, Emacceptor) and decrease at emission wavelength 620 nm (emission of the donor Eu-cryptate Ubiquitin, Emdonor).
The assay was performed in a 384-well plate format (Optiplate, Perkin Elmer, #6007290) on an automated liquid-handler (Hamilton STAR, Hamilton Robotics, Switzerland).
All compounds were dissolved in 100% DMSO and serially diluted in 96-well plates (from 100 μM to 0.005 μM).
Briefly, all reagents were thawed and kept on ice. A master mix containing E1, E2, E3 and TRF-Ubiquitin Mix (SBB-TR0051) diluted in the assay buffer (Tris-HCl pH 7.6 25 mM, NaCl 100 mM, MgCl2 5 mM and Tween 0.01%) is prepared and 50 μl/well is dispensed in a 384 well plate. 3 μl of compounds dissolved in DMSO in the above-indicated concentration range were added and pre-incubated for 1 hour. Final E1, E2 and E3 concentrations in the assay buffer (Tris-HCl pH 7.6 25 mM, NaCl 100 mM, MgCl2 5 mM and Tween 0.01%) were 30, 350 and 50 nanomolars, respectively. The reaction was initiated with the addition of ATP (22 μl of 2 mM ATP, JenaBioscience, NU-1010) and was allowed to proceed for 120 minutes, measuring fluorescence emission at 665 nm and 620 nm in real-time on an EnSpire microplate reader (Perkin Elmer).
Kinetic raw data were analyzed by Area Under the Curve (AUC) method using Prism GraphPad software.
% signal/background corresponds to the following equation: (Experimental signal−Background signal)/Background signal×100%
Experimental signal corresponds to the signal obtained by the enzymatic reaction in presence of the vehicle (DMSO) and/or the different compound concentrations. Background signal corresponds to the signal obtained by the enzymatic reaction in absence of ATP.
The relative potency of the compounds was evaluated by dose-response curves following the enzymatic reaction of HECT NEDD4 WT in real time for 120 minutes.
Percentage of inhibition is then determined by the equation: % inhibition=100×[1−(X)/(MAX)],
where MAX correspond to AUC of the vehicle (DMSO) treated enzyme, and X corresponds to the AUC of the compound treated enzyme.

Structure (SMILES) | inhibition at 11 µM [%]
CCOC(=O)/C=C/CNCCCN1c2ccccc2COc2ccc(C(F)(F)F)cc21 [Compound 3, Ethyl (E)-4-{3-[7-(trifluoromethyl)dibenzo[b,e][1,4]oxazepin-5(11H)-yl]propylamino}but-2-enoate maleate] | 30 to 50
CON(C)C(=O)/C=C/CN(C)CCCN1c2ccccc2CCc2ccc(Cl)cc21 [Compound 6, (E)-4-[3-(3-Chloro-10,11-dihydro-5H-dibenzo[b,f]azepin-5-yl)propyl-methyl-amino]-N-methoxy-N-methyl-but-2-enamide] | > 50
CC(=O)/C=C/CN(C)CCCN1c2ccccc2CCc2ccc(Cl)cc21 [Compound 7, (E)-5-[3-(3-chloro-10,11-dihydro-5H-dibenzo[b,f]azepin-5-yl)propyl-methyl-amino]pent-3-en-2-one maleate] | > 50
CN(C/C=C/C(=O)c1ccccc1)CCCN1c2ccccc2CCc2ccc(Cl)cc21 [Compound 8, (E)-4-[3-(3-chloro-10,11-dihydro-5H-dibenzo[b,f]azepin-5-yl)propyl-methyl-amino]-1-phenyl-but-2-en-1-one] | > 50
CC(=O)/C=C/CN(C)CCCCN1c2ccccc2CCc2ccc(Cl)cc21 [Compound 10, (E)-5-[4-(3-chloro-10,11-dihydro-5H-dibenzo[b,f]azepin-5-yl)butyl-methyl-amino]pent-3-en-2-one maleate] | > 50
O=C(/C=C/CNCCCN1c2ccccc2CCc2ccc(Cl)cc21)Nc1ccccc1 [Compound 21, (E)-4-{[3-(3-chloro-10,11-dihydro-5H-dibenzo[b,f]azepin-5-yl)propyl]amino}-N-phenyl-but-2-enamide hydrochloride] | < 30
CCOC(=O)/C=C/CNCCCN1c2ccccc2NC(=O)c2ccc(Cl)cc21 [Compound 23, Ethyl (E)-4-{[3-(3-chloro-11-oxo-10,11-dihydro-5H-dibenzo[b,e][1,4]diazepin-5-yl)propyl]amino}but-2-enoate maleate] | 30 to 50
CCOC(=O)/C=C/CNCCCCN1c2ccccc2NC(=O)c2ccc(Cl)cc21 [Compound 24, Ethyl (E)-4-{[4-(3-chloro-11-oxo-10,11-dihydro-5H-dibenzo[b,e][1,4]diazepin-5-yl)butyl]amino}but-2-enoate maleate] | > 50
CCOC(=O)/C=C/CNCCCN1c2ccccc2NC(=O)c2ccc(C(F)(F)F)cc21 [Compound 25, Ethyl (E)-4-{[3-(11-oxo-3-(trifluoromethyl)-10,11-dihydro-5H-dibenzo[b,e][1,4]diazepin-5-yl)propyl]amino}but-2-enoate maleate] | < 30
CCOC(=O)/C=C/CNCCCN1c2cc(Cl)ccc2C(=O)N(C)c2ccccc21 [Compound 27, Ethyl (E)-4-{[3-(3-chloro-10-methyl-11-oxo-10,11-dihydro-5H-dibenzo[b,e][1,4]diazepin-5-yl)propyl]amino}but-2-enoate maleate] | > 50

Further lines, results first:

inhibition at 11 µM [%] | Structure (SMILES)
30 to 50 | COC(=O)/C=C/CN(C)CCCN1c2ccccc2CCc2ccc(Cl)cc21 [Compound 1, Methyl (E)-4-[3-(3-chloro-10,11-dihydro-5H-dibenzo[b,f]azepin-5-yl)propyl-methyl-amino]but-2-enoate hydrochloride]
> 50 | CCOC(=O)/C=C/CNCCCN1c2ccccc2COc2ccc(Cl)cc21 [Compound 2, Ethyl (E)-4-[3-(7-chlorodibenzo[b,e][1,4]oxazepin-5(11H)-yl)propylamino]but-2-enoate maleate]
> 50 | CCOC(=O)/C=C/CNCCCN1c2ccccc2CCc2ccc(Cl)cc21 [Compound 4, Ethyl (E)-4-[3-(3-chloro-10,11-dihydro-5H-dibenzo[b,f]azepin-5-yl)propylamino]but-2-enoate fumarate]
30 to 50 | CCOC(=O)/C=C/CNCCCN1c2ccccc2CCc2ccccc21 [Compound 11, Ethyl (E)-4-[3-(10,11-dihydro-5H-dibenzo[b,f]azepin-5-yl)propylamino]but-2-enoate fumarate]
> 50 | CCOC(=O)/C=C/CNCCCCCN1c2ccccc2CCc2ccc(Cl)cc21 [Compound 13, Ethyl (E)-4-[5-(3-chloro-10,11-dihydro-5H-dibenzo[b,f]azepin-5-yl)pentylamino]but-2-enoate maleate]
> 50 | CCOC(=O)/C=C/CNCCCN1c2ccccc2CCc2ccc([N+](=O)[O-])cc21 [Compound 14, Ethyl (E)-4-[3-(3-nitro-10,11-dihydro-5H-dibenzo[b,f]azepin-5-yl)propylamino]but-2-enoate maleate]
> 50 | CCOC(=O)/C=C/CNCCCN1c2ccccc2CCc2ccc(Br)cc21 [Compound 15, Ethyl (E)-4-[3-(3-bromo-10,11-dihydro-5H-dibenzo[b,f]azepin-5-yl)propylamino]but-2-enoate maleate]
< 30 | O=C(O)/C=C/CNCCCN1c2ccccc2CCc2ccc(Cl)cc21 [Compound 16, (E)-4-[3-(3-chloro-10,11-dihydro-5H-dibenzo[b,f]azepin-5-yl)propylamino]but-2-enoic acid 2,2,2-trifluoroacetate]
< 30 | O=C(O)/C=C/CNCCCCN1c2ccccc2CCc2ccc(Cl)cc21 [Compound 17, (E)-4-[4-(3-chloro-10,11-dihydro-5H-dibenzo[b,f]azepin-5-yl)butylamino]but-2-enoic acid 2,2,2-trifluoroacetate]
< 30 | NC(=O)/C=C/CNCCCN1c2ccccc2CCc2ccc(Cl)cc21 [Compound 18, (E)-4-{[3-(3-chloro-10,11-dihydro-5H-dibenzo[b,f]azepin-5-yl)propyl]amino}but-2-enamide hydrochloride]
< 30 | CNC(=O)/C=C/CNCCCN1c2ccccc2CCc2ccc(Cl)cc21 [Compound 19, (E)-4-{[3-(3-chloro-10,11-dihydro-5H-dibenzo[b,f]azepin-5-yl)propyl]amino}-N-methyl-but-2-enamide hydrochloride]
< 30 | CN(C)C(=O)/C=C/CNCCCN1c2ccccc2CCc2ccc(Cl)cc21 [Compound 20, (E)-4-{[3-(3-chloro-10,11-dihydro-5H-dibenzo[b,f]azepin-5-yl)propyl]amino}-N,N-dimethyl-but-2-enamide hydrochloride]
> 50 | N#C/C=C/CNCCCN1c2ccccc2CCc2ccc(Cl)cc21 [Compound 22, (E)-4-{[3-(3-chloro-10,11-dihydro-5H-dibenzo[b,f]azepin-5-yl)propyl]amino}but-2-enenitrile hydrochloride]
> 50 | CCOC(=O)/C=C/CNCCCN1c2cc(Cl)ccc2NC(=O)c2ccccc21 [Compound 26, Ethyl (E)-4-{[3-(7-chloro-11-oxo-10,11-dihydro-5H-dibenzo[b,e][1,4]diazepin-5-yl)propyl]amino}but-2-enoate maleate]
